Results reported in the NIST ThermoML archive (doi:10.1021/je900311v).
Numbers after ± are expanded uncertainties.

Legend:
[1] = 298.15 K; 101.33 kPa; Liquid
[2] = excess molar enthalpy (molar enthalpy of mixing); xn = mol fraction of the nth substance listed; conditions: 298.15 K, 101 kPa, Liquid, Calvet calorimetry

CCCCCC(=O)CC [3-octanone]
Conditions | mass density [kg/m3]
[1] | 817.77 ± 0.55

CCCCCC(=O)CC [3-octanone] + CCCCCCCCCCCC
[2]
Conditions | excess molar enthalpy [kcal/mol]
x1 = 0.0352 | 0.0408 ± 0.000645
x1 = 0.0679 | 0.0749 ± 0.00105
x1 = 0.0985 | 0.102 ± 0.00136
x1 = 0.1272 | 0.126 ± 0.00165
x1 = 0.1541 | 0.145 ± 0.00189
x1 = 0.1794 | 0.162 ± 0.00208
x1 = 0.2078 | 0.178 ± 0.00229
x1 = 0.2344 | 0.192 ± 0.00239
x1 = 0.2592 | 0.203 ± 0.00263
x1 = 0.2824 | 0.212 ± 0.00263
x1 = 0.3042 | 0.22 ± 0.00287
x1 = 0.3248 | 0.226 ± 0.00287
x1 = 0.3477 | 0.232 ± 0.00287
x1 = 0.3691 | 0.236 ± 0.00311
x1 = 0.3892 | 0.239 ± 0.00311
x1 = 0.408 | 0.242 ± 0.00311
x1 = 0.4257 | 0.243 ± 0.00311
x1 = 0.445 | 0.244 ± 0.00311
x1 = 0.4631 | 0.245 ± 0.00311
x1 = 0.48 | 0.245 ± 0.00311
x1 = 0.4959 | 0.245 ± 0.00311
x1 = 0.5109 | 0.244 ± 0.00311
x1 = 0.525 | 0.243 ± 0.00311
x1 = 0.5383 | 0.242 ± 0.00311
x1 = 0.5524 | 0.24 ± 0.00311
x1 = 0.5657 | 0.237 ± 0.00311
x1 = 0.5782 | 0.235 ± 0.00311
x1 = 0.5798 | 0.233 ± 0.00287
x1 = 0.59 | 0.233 ± 0.00287
x1 = 0.5925 | 0.231 ± 0.00287
x1 = 0.6057 | 0.229 ± 0.00287
x1 = 0.6194 | 0.226 ± 0.00287
x1 = 0.632 | 0.222 ± 0.00287
x1 = 0.6451 | 0.219 ± 0.00287
x1 = 0.6588 | 0.215 ± 0.00263
x1 = 0.673 | 0.21 ± 0.00263
x1 = 0.6855 | 0.207 ± 0.00263
x1 = 0.6985 | 0.201 ± 0.00263
x1 = 0.712 | 0.196 ± 0.00263
x1 = 0.726 | 0.19 ± 0.00239
x1 = 0.7405 | 0.183 ± 0.00234
x1 = 0.7557 | 0.176 ± 0.00227
x1 = 0.7693 | 0.17 ± 0.00217
x1 = 0.7833 | 0.162 ± 0.0021
x1 = 0.798 | 0.154 ± 0.00201
x1 = 0.8133 | 0.146 ± 0.00189
x1 = 0.8289 | 0.136 ± 0.00177
x1 = 0.8453 | 0.126 ± 0.00165
x1 = 0.8592 | 0.116 ± 0.00153
x1 = 0.8735 | 0.106 ± 0.00141
x1 = 0.8883 | 0.0958 ± 0.00129
x1 = 0.9036 | 0.0842 ± 0.00115
x1 = 0.9194 | 0.0717 ± 0.001
x1 = 0.9358 | 0.0585 ± 0.000837
x1 = 0.9511 | 0.0454 ± 0.000693
x1 = 0.9668 | 0.0313 ± 0.000526
x1 = 0.9831 | 0.0161 ± 0.000382

CCCCCC(=O)CC [3-octanone] + CCCCCCCCCCCCCC
[2]
Conditions | excess molar enthalpy [kcal/mol]
x1 = 0.0384 | 0.0466 ± 0.000717
x1 = 0.074 | 0.0845 ± 0.00115
x1 = 0.107 | 0.116 ± 0.00153
x1 = 0.1377 | 0.141 ± 0.00184
x1 = 0.1664 | 0.163 ± 0.0021
x1 = 0.1933 | 0.181 ± 0.00232
x1 = 0.2233 | 0.198 ± 0.00263
x1 = 0.2512 | 0.213 ± 0.00263
x1 = 0.2771 | 0.224 ± 0.00287
x1 = 0.3013 | 0.233 ± 0.00287
x1 = 0.324 | 0.241 ± 0.00311
x1 = 0.3452 | 0.247 ± 0.00311
x1 = 0.3687 | 0.252 ± 0.00311
x1 = 0.3907 | 0.257 ± 0.00335
x1 = 0.4111 | 0.26 ± 0.00335
x1 = 0.4303 | 0.262 ± 0.00335
x1 = 0.4482 | 0.263 ± 0.00335
x1 = 0.465 | 0.264 ± 0.00335
x1 = 0.4833 | 0.264 ± 0.00335
x1 = 0.5005 | 0.264 ± 0.00335
x1 = 0.5166 | 0.263 ± 0.00335
x1 = 0.5316 | 0.261 ± 0.00335
x1 = 0.5458 | 0.259 ± 0.00335
x1 = 0.5618 | 0.257 ± 0.00335
x1 = 0.5762 | 0.254 ± 0.00311
x1 = 0.5904 | 0.251 ± 0.00311
x1 = 0.6033 | 0.248 ± 0.00311
x1 = 0.6131 | 0.245 ± 0.00311
x1 = 0.6255 | 0.242 ± 0.00311
x1 = 0.6385 | 0.239 ± 0.00311
x1 = 0.6519 | 0.235 ± 0.00287
x1 = 0.666 | 0.23 ± 0.00287
x1 = 0.6781 | 0.226 ± 0.00287
x1 = 0.6906 | 0.221 ± 0.00287
x1 = 0.7037 | 0.216 ± 0.00263
x1 = 0.7172 | 0.21 ± 0.00263
x1 = 0.7313 | 0.204 ± 0.00263
x1 = 0.7459 | 0.197 ± 0.00263
x1 = 0.7586 | 0.19 ± 0.00239
x1 = 0.7716 | 0.183 ± 0.00234
x1 = 0.7852 | 0.176 ± 0.00225
x1 = 0.7992 | 0.167 ± 0.00215
x1 = 0.8138 | 0.158 ± 0.00206
x1 = 0.8288 | 0.149 ± 0.00194
x1 = 0.8419 | 0.14 ± 0.00182
x1 = 0.8555 | 0.13 ± 0.0017
x1 = 0.8694 | 0.12 ± 0.00158
x1 = 0.8838 | 0.109 ± 0.00143
x1 = 0.8988 | 0.0967 ± 0.00129
x1 = 0.9142 | 0.0835 ± 0.00115
x1 = 0.9552 | 0.0458 ± 0.000693
x1 = 0.9696 | 0.0313 ± 0.00055
x1 = 0.9846 | 0.0167 ± 0.000382

CCCCCC(=O)CC [3-octanone] + CCCCCCCCCCCCCCCC
[2]
Conditions | excess molar enthalpy [kcal/mol]
x1 = 0.0448 | 0.0548 ± 0.000813
x1 = 0.0857 | 0.0987 ± 0.00134
x1 = 0.1233 | 0.134 ± 0.00174
x1 = 0.1578 | 0.163 ± 0.0021
x1 = 0.1899 | 0.187 ± 0.00239
x1 = 0.2195 | 0.207 ± 0.00263
x1 = 0.2522 | 0.227 ± 0.00287
x1 = 0.2824 | 0.243 ± 0.00311
x1 = 0.3102 | 0.255 ± 0.00311
x1 = 0.336 | 0.265 ± 0.00335
x1 = 0.3599 | 0.273 ± 0.00335
x1 = 0.3822 | 0.279 ± 0.00359
x1 = 0.4079 | 0.284 ± 0.00359
x1 = 0.4316 | 0.288 ± 0.00359
x1 = 0.4534 | 0.29 ± 0.00359
x1 = 0.4737 | 0.292 ± 0.00359
x1 = 0.4956 | 0.292 ± 0.00359
x1 = 0.5158 | 0.291 ± 0.00359
x1 = 0.5345 | 0.29 ± 0.00359
x1 = 0.5517 | 0.288 ± 0.00359
x1 = 0.5677 | 0.286 ± 0.00359
x1 = 0.5827 | 0.283 ± 0.00359
x1 = 0.5995 | 0.279 ± 0.00359
x1 = 0.615 | 0.276 ± 0.00359
x1 = 0.6293 | 0.272 ± 0.00335
x1 = 0.6426 | 0.268 ± 0.00335
x1 = 0.655 | 0.264 ± 0.00335
x1 = 0.6775 | 0.253 ± 0.00311
x1 = 0.69 | 0.248 ± 0.00311
x1 = 0.7029 | 0.243 ± 0.00311
x1 = 0.7163 | 0.237 ± 0.00311
x1 = 0.7302 | 0.231 ± 0.00287
x1 = 0.7423 | 0.225 ± 0.00287
x1 = 0.7547 | 0.218 ± 0.00287
x1 = 0.7676 | 0.211 ± 0.00263
x1 = 0.7809 | 0.204 ± 0.00263
x1 = 0.7947 | 0.195 ± 0.00239
x1 = 0.809 | 0.186 ± 0.00239
x1 = 0.8216 | 0.177 ± 0.00227
x1 = 0.8347 | 0.168 ± 0.00215
x1 = 0.8482 | 0.157 ± 0.00203
x1 = 0.8621 | 0.146 ± 0.00189
x1 = 0.8741 | 0.136 ± 0.00177
x1 = 0.8865 | 0.125 ± 0.00165
x1 = 0.8993 | 0.113 ± 0.00151
x1 = 0.9124 | 0.1 ± 0.00134
x1 = 0.9259 | 0.0866 ± 0.0012
x1 = 0.9375 | 0.0746 ± 0.00105
x1 = 0.9494 | 0.0618 ± 0.000884
x1 = 0.9615 | 0.0478 ± 0.000741
x1 = 0.974 | 0.033 ± 0.000574
x1 = 0.9868 | 0.0169 ± 0.00043

CCCCCCCCCCCC [dodecane]
Conditions | mass density [kg/m3]
[1] | 745.28 ± 0.64

CCCCCCCCCCCCCCCC [hexadecane]
Conditions | mass density [kg/m3]
[1] | 770.31 ± 0.61

CCCCCCCCCCCCCC [tetradecane]
Conditions | mass density [kg/m3]
[1] | 760.2 ± 0.62
